{"source": "patent US10259843B2", "about": "“Cyclic tetrapeptide stereoisomers” (University of Kansas, priority 2014, dated 2019)", "key": {"[1]": {"test": "mouse 55° C. warm water tail withdrawal assay, antinociception", "format": "in vivo", "details": "for ED50 (95% CI) i.c.v. / ED50 (95% CI) p.o.: antinociception; for Receptors involved: opioid receptors contributing to antinociception", "protocol": "(§1) The peptides of Table 1 shown below in Tables 3 and 4 were evaluated in radioligand binding assays for mu, kappa and delta opioid receptor affinities in vitro, and in the mouse 55° C. warm water tail withdrawal assay in vivo for antinociception and opioid antagonist activity."}, "[2]": {"test": "conditioned place response assay", "details": "oral administration of the peptides"}, "[3]": {"system": "opioid receptors (KOR, MOR, DOR)", "test": "mouse 55° C. warm water tail withdrawal assay, opioid antagonist activity", "format": "in vivo", "details": "for Antagonism (opioid receptor antagonised in vivo): dose not given", "protocol": "as §1"}, "locomotion (CLAMS)": {"test": "locomotion (CLAMS)", "format": "in vivo", "set-up": "key: ✓ indicates tested (if no other comment then no significant effect)"}, "[4]": {"biological_target": "kappa opioid receptor (KOR) (Homo sapiens, UniProt P41145)", "sequence (P41145 whole entry)": "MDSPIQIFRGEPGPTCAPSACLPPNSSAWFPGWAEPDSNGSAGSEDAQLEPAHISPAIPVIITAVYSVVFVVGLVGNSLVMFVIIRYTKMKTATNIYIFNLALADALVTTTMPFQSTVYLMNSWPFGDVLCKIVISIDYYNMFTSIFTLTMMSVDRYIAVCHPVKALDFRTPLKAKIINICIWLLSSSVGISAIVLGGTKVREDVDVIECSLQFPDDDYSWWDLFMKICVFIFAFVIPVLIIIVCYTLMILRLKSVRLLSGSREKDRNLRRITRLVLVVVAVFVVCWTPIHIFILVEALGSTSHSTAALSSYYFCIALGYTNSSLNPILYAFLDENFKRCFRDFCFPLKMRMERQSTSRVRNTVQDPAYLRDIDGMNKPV", "test": "radioligand binding assay, kappa opioid receptor affinity", "details": "for Selectivity KOR/MOR/DOR: ratio of Ki values", "protocol": "as §1"}, "respiratory depression": {"test": "respiratory depression", "format": "in vivo", "set-up": "key: ✓ indicates tested (if no other comment then no significant effect)"}, "mu opioid receptor (MOR)": {"biological_target": "mu opioid receptor (MOR) (Homo sapiens, UniProt P35372)", "sequence (P35372 whole entry)": "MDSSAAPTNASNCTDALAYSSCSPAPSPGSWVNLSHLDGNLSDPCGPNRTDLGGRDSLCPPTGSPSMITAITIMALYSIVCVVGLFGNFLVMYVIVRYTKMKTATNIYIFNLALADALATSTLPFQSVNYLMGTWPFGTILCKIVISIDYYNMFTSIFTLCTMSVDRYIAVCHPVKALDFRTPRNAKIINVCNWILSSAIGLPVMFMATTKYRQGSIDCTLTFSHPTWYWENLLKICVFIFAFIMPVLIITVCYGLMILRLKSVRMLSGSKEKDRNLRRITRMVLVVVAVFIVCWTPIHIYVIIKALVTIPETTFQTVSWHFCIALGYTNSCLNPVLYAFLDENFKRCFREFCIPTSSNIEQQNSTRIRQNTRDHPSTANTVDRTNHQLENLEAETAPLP", "test": "radioligand binding assay, mu opioid receptor affinity", "protocol": "as §1"}, "[5]": {"test": "rotorod test for sedation and motor coordination", "format": "in vivo", "set-up": "key: ✓ indicates tested (if no other comment then no significant effect)"}, "[6]": {"biological_target": "delta opioid receptor (DOR) (Homo sapiens, UniProt P41143)", "sequence (P41143 whole entry)": "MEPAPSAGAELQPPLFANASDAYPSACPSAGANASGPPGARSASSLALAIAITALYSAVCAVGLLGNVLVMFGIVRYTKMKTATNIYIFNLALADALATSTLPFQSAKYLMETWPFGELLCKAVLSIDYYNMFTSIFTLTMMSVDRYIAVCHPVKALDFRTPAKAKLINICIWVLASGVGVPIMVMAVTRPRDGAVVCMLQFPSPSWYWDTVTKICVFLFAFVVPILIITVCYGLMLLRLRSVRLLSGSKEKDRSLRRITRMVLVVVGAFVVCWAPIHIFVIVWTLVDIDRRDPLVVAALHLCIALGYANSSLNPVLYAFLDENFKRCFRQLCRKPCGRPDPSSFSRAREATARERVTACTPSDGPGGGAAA", "test": "radioligand binding assay, delta opioid receptor affinity", "details": "for Ki: n in parentheses, read-out: Ki (nM ± SEM) DOR", "protocol": "as §1"}, "acute tolerance model": {"test": "acute tolerance model", "details": "in vivo"}, "[7]": {"details": "n in parentheses, read-out: Ki (nM ± SEM) KOR"}, "[8]": {"details": "n in parentheses, read-out: Ki (nM ± SEM) MOR"}}, "note": "Where “and” joins values, the source holds several entries; their conditions need not be identical. Identical values can stand only once. Entries after “also recorded” stand apart in the source; their conditions may differ. Counter-ions that a name gives are not always drawn. Like-named read-outs stand apart in the source and are kept apart here. Non-standard residues stand in square brackets, D forms with d. Residues, ends and D or L forms follow the SMILES beside them.", "data": [{"smiles": "O=C1N[C@H](Cc2ccccc2)C(=O)N2CCC[C@H]2C(=O)N[C@H](Cc2ccccc2)C(=O)N[C@H]1Cc1c[nH]c2ccccc12", "note": "[JVA 3638, cyclo[D-Phe- Pro-D-Phe-Trp]] (cyclo(P[dF]W[dF]))", "values": [{"measurement": "ED50 (95% CI) i.c.v.", "setting": "[1]; i.c.v.", "result": "8.93 (1.96-19.5) nmol"}]}, {"smiles": "CN1CC[C@]23c4c5ccc(O)c4O[C@H]2[C@@H](O)C=C[C@H]3[C@H]1C5", "note": "[Morphine sulfate, morphine, reference compound]", "values": [{"measurement": "conditioned place preference (drug seeking behavior) or conditioned place aversion", "setting": "[2]", "result": "significant conditioned place preference"}]}, {"smiles": "O=C1N[C@@H](Cc2ccccc2)C(=O)N2CCC[C@H]2C(=O)N[C@@H](Cc2ccccc2)C(=O)N[C@H]1Cc1c[nH]c2ccccc12", "note": "[JVA 3612, cyclo[Phe-Pro- Phe-Trp]] (cyclo(FPFW))", "values": [{"measurement": "ED50 (95% CI) i.c.v.", "setting": "[1]; i.c.v.", "result": "3.52 (2.01-6.42) nmol"}, {"measurement": "ED50 (95% CI) p.o.", "setting": "[1]; p.o.", "result": "4.28 (3.56-5.27) mg/kg"}, {"measurement": "Receptors involved", "setting": "[1]", "result": "KOR, MOR and DOR"}]}, {"smiles": "O=C1N[C@H](Cc2c[nH]c3ccccc23)C(=O)N[C@H](Cc2ccccc2)C(=O)N2CCC[C@@H]2C(=O)N[C@H]1Cc1ccccc1", "note": "[JVA 3609, cyclo[D-Phe-D- Pro-Phe-D-Trp]] (cyclo(F[dW][dF][dP]))", "values": [{"measurement": "Antagonism (dose, nmol)", "setting": "[3]; 30 nmol", "result": "None (30)"}, {"measurement": "Locomotion (CLAMS, 10 mg/kg, p.o.)", "setting": "locomotion (CLAMS)", "result": "Sig. hypo-"}, {"measurement": "Ki", "setting": "[4]; [7]", "result": "> 10000", "unit": "nM"}, {"measurement": "Respiratory depression 10 mg/kg p.o.", "setting": "respiratory depression", "result": "evidence of respiratory depression; also recorded: Resp"}, {"measurement": "Ki", "setting": "mu opioid receptor (MOR); [8]", "result": "> 10000", "unit": "nM"}, {"measurement": "Rotorod (10 mg/kg, p.o.)", "setting": "[5]", "result": "✓ (sig"}, {"measurement": "Ki", "setting": "[6]", "result": "> 10000", "unit": "nM"}, {"measurement": "ED50 (95% CI) i.c.v.", "setting": "[1]; i.c.v.", "result": 2.39, "unit": "nmol"}, {"measurement": "ED50 (95% CI) p.o.", "setting": "[1]; p.o.", "result": "≥10", "unit": "mg/kg"}, {"measurement": "Receptors involved", "setting": "[1]", "result": "mu opioid receptors (MOR) are not involved; also recorded: DOR, KOR"}, {"measurement": "antinociception response p.o. at 30 mg/kg", "setting": "[1]; p.o.", "result": "(~60% at"}]}, {"smiles": "O=C1N[C@H](Cc2c[nH]c3ccccc23)C(=O)N[C@@H](Cc2ccccc2)C(=O)N2CCC[C@H]2C(=O)N[C@H]1Cc1ccccc1", "note": "[JVA 3639, cyclo[Phe-Pro- Phe-D-Trp]] (cyclo(FPF[dW]))", "values": [{"measurement": "ED50 (95% CI) i.c.v.", "setting": "[1]; i.c.v.", "result": "49.7 (34.8-69.8) nmol"}]}, {"smiles": "O=C1N[C@H](Cc2c[nH]c3ccccc23)C(=O)N[C@@H](Cc2ccccc2)C(=O)N2CCC[C@@H]2C(=O)N[C@H]1Cc1ccccc1", "note": "[JVA 2802, cyclo[Phe-D-Pro-Phe-D-Trp], reference compound] (cyclo(F[dP]F[dW]))", "values": [{"measurement": "Antagonism (opioid receptor antagonised in vivo)", "setting": "[3]", "result": "KOR"}, {"measurement": "Locomotion (CLAMS)", "setting": "locomotion (CLAMS); 60 mg/kg", "result": "✓"}, {"measurement": "affinity for KOR", "setting": "[4]", "result": "retains KOR affinity comparable to the parent CJ-15,208"}, {"measurement": "Selectivity KOR/MOR/DOR", "setting": "[4]", "result": "1/37/599"}, {"measurement": "Ki", "setting": "mu opioid receptor (MOR); [8]", "result": "259 ± 29", "unit": "nM"}, {"measurement": "Ki", "setting": "[6]", "result": "4190 ± 860", "unit": "nM"}, {"measurement": "antinociception i.c.v. at 30 nmol", "setting": "[1]; i.c.v., 30 nmol", "result": "~40", "unit": "% @"}, {"measurement": "Receptors involved", "setting": "[1]", "result": "KOR"}, {"measurement": "antinociception p.o. at 60 mg/kg", "setting": "[1]; p.o., 60 mg/kg", "result": "~25", "unit": "% @"}]}, {"smiles": "O=C1N[C@@H](Cc2ccccc2)C(=O)N2CCC[C@@H]2C(=O)N[C@@H](Cc2ccccc2)C(=O)N[C@H]1Cc1c[nH]c2ccccc12", "note": "[JVA 2801, cyclo[Phe-D-Pro-Phe-Trp], reference compound] (cyclo(FWF[dP]))", "values": [{"measurement": "Antagonism (opioid receptor antagonised in vivo)", "setting": "[3]", "result": "KOR"}, {"measurement": "Antagonism (opioid receptor antagonised in vivo)", "setting": "[3]; listed as CJ-15,208", "result": "mixed opioid agonist/kappa opioid receptor (KOR) antagonist activity; also recorded: weak antagonist activities at kappa opioid receptors (KOR)"}, {"measurement": "Ki", "setting": "[4]; [7]", "result": "35.4 nM and 16.9 nM"}, {"measurement": "Selectivity KOR/MOR/DOR", "setting": "[4]", "result": "1/18/49 and 1/12/102"}, {"measurement": "Rotorod", "setting": "[5]; 10 and 60 mg/kg", "result": "✓ (10 and 60"}, {"measurement": "Acute Tolerance ED50 shift", "setting": "acute tolerance model", "result": 1.73, "unit": "fold"}, {"measurement": "Ki", "setting": "[6]", "result": "1720 ± 350", "unit": "nM"}, {"measurement": "ED50 (95% CI) i.c.v.", "setting": "[1]; i.c.v.", "result": 1.74, "unit": "nmol"}, {"measurement": "ED50 (95% CI) p.o.", "setting": "[1]; p.o.", "result": 3.49, "unit": "mg/kg"}, {"measurement": "Receptors involved", "setting": "[1]", "result": "KOR, MOR"}]}, {"smiles": "O=C1N[C@@H](Cc2ccccc2)C(=O)N2CCC[C@@H]2C(=O)N[C@H](Cc2ccccc2)C(=O)N[C@H]1Cc1c[nH]c2ccccc12", "note": "[JVA 3606, cyclo[Phe-D-Pro-D-Phe-Trp]] (cyclo(F[dP][dF]W))", "values": [{"measurement": "Antagonism (dose, nmol)", "setting": "[3]; 100 nmol", "result": "None (100)"}, {"measurement": "Locomotion (CLAMS, 10 mg/kg, p.o.)", "setting": "locomotion (CLAMS)", "result": "Sig. hypo-"}, {"measurement": "Ki", "setting": "[4]; [7]", "result": "362 ± 51", "unit": "nM"}, {"measurement": "Ki", "setting": "[4]; read-out: Ki KOR", "result": "< 1000", "unit": "nM"}, {"measurement": "Respiratory depression 10 mg/kg p.o.", "setting": "respiratory depression", "result": "✓"}, {"measurement": "Ki", "setting": "mu opioid receptor (MOR); [8]", "result": "3920 ± 200", "unit": "nM"}, {"measurement": "Ki", "setting": "mu opioid receptor (MOR); read-out: Ki MOR", "result": "> 1000", "unit": "nM"}, {"measurement": "Rotorod (10 mg/kg, p.o.)", "setting": "[5]", "result": "✓"}, {"measurement": "Acute Tolerance ED50 shift", "setting": "acute tolerance model", "result": "Substantial"}, {"measurement": "affinity for DOR", "setting": "[6]", "result": "negligible affinity"}, {"measurement": "Ki", "setting": "[6]", "result": "> 10000", "unit": "nM"}, {"measurement": "ED50 (95% CI) i.c.v.", "setting": "[1]; i.c.v.", "result": "Partial agonist"}, {"measurement": "ED50 (95% CI) p.o.", "setting": "[1]; p.o.", "result": "> 30", "unit": "mg/kg"}, {"measurement": "maximum antinociception i.c.v.", "setting": "[1]; i.c.v., max", "result": "(~60% max)"}, {"measurement": "Receptors involved", "setting": "[1]", "result": "KOR, MOR"}, {"measurement": "antinociception response p.o. at 30 mg/kg", "setting": "[1]; p.o.", "result": "~45", "unit": "%"}]}]}
